# Calls of active or inactive are those of the source. The rule behind the calls is not given here.
# Molecular target: Influenza A virus M2 proton channel (A/TW/4845/1999 H1N1)
# Assay: NMR binding screen, influenza A virus M2 proton channel, Kd (AID 1549)
# Conditions: M2 protein
row,Structure (SMILES),Kd
1,CC(C)c1c(O)c(-c2cc3c(c(C(C)C)c2O)CCC2C(C)(C)CCC[C@]32C)cc2c1CCC1C(C)(C)CCC[C@]21C (stereo partly drawn),> 4 mM (inactive)
2,CC(=O)Nc1c(Cl)cnn(-c2ccccc2)c1=O,> 4 mM (inactive)
3,COc1cc2c3cc1Oc1c(OC)c(OC)cc4c1[C@@H](Cc1cccc(c1)Oc1ccc(c(O)c1)C[C@@H]3N(C)CC2)N(C)CC4,> 4 mM (inactive)
4,COc1c(-c2coc3cc4c(cc3c2=O)CC(O)C(C)(C)O4)ccc2c1C=CC(C)(C)O2 (stereo not drawn),> 4 mM (inactive)
5,CC(=O)OC1CCC2(O)CC1(C)CCC1C2CC1(C)C (stereo not drawn),> 4 mM (inactive)
6,CCN1CCN(CCCNc2ncnc3nc[nH]c23)CC1,> 4 mM (inactive)
7,CSc1nn(-c2ccccc2)c(N)c1C#N,> 4 mM (inactive)
8,CC1Cc2nc(SCC(N)=O)n(C)c(=O)c2S1 (stereo not drawn),> 4 mM (inactive)
9,Nc1nc(SCc2ccc3c(c2)OCO3)n[nH]1,> 4 mM (inactive)
10,COC(=O)C[C@H]1C(C)(C)C(OC(C)=O)[C@]2(O)C=C3C(CC[C@]4(C)C3CC(=O)O[C@H]4c3ccoc3)C1(C)C2=O (stereo partly drawn),> 4 mM (inactive)
11,CNC(=O)N1CCN(C(=O)NC)CC1,> 4 mM (inactive)
12,CN1CCN(C(=O)c2ccccc2N)CC1,> 4 mM (inactive)
13,CN(C)C(=S)Nc1nc2ccccc2s1,> 4 mM (inactive)
14,CN1C(=O)/C(=C\c2ccc[nH]2)SC1=S,> 4 mM (inactive)
15,O=C(O)c1ccc(-n2cccc2)cc1,> 4 mM (inactive)
16,O=c1nc(N2CCOCC2)nc2n1CCO2,> 4 mM (inactive)
17,CN1CCN(C(=S)NC(=O)c2ccn(C)n2)CC1,> 4 mM (inactive)
18,NC(=O)c1ccc(-c2ccccn2)s1,> 4 mM (inactive)
19,CCC(=O)Nc1cccc(NC(C)=O)c1,> 4 mM (inactive)
20,c1cnc(N2CCNCC2)nc1,> 4 mM (inactive)
21,O=C1C2C3C=CC(C3)C2C(=O)N1c1ccccn1 (stereo not drawn),> 4 mM (inactive)
22,NC(=O)c1ccc(SCC(=O)O)c([N+](=O)[O-])c1,> 4 mM (inactive)
23,O=C1C2CCCCC2C(=O)N1Cc1cccnc1 (stereo not drawn),> 4 mM (inactive)
24,COC(=O)[C@]1(C)CC[C@]2(C)CC[C@]3(C)C4=CC=C5C(=CC(=O)C(O)=C5C)[C@]4(C)CC[C@@]3(C)[C@@H]2C1,> 4 mM (inactive)

row,Structure (SMILES),Kd
1,Cn1ccc(NC(=S)NC2CCCC2)n1,> 4 mM (inactive)
2,CC(=O)N1CCN(S(=O)(=O)c2ccccc2)CC1,> 4 mM (inactive)
3,S=c1nc(Cc2ccccc2)[nH][nH]1,> 4 mM (inactive)
4,CC(=O)Nc1ccc(C(=O)n2nc(C)cc2C)cc1,> 4 mM (inactive)
5,CCOC(=O)c1cnc2cc(C)nn2c1C,> 4 mM (inactive)
6,O=c1cccc2n1C[C@H]1CNCC2C1,> 4 mM (inactive)
7,NC(=O)CN=Cc1c(O)[nH]c2ccccc12,> 4 mM (inactive)
8,Cc1cc(C)cc(C(=O)N2CCC(C(N)=O)CC2)c1,> 4 mM (inactive)
9,Cc1nnsc1C(=O)O,> 4 mM (inactive)
10,COc1ccccc1NC(=O)C1CCC(=O)N1 (stereo not drawn),> 4 mM (inactive)
11,c1ccc(-n2cnnc2)nc1,> 4 mM (inactive)
12,O=C(c1nc2ncccn2n1)N1CCc2ccccc2C1,> 4 mM (inactive)
13,O=C1CNC(=O)N1Cc1ccc(Br)cc1,> 4 mM (inactive)
14,Nc1[nH]c(=S)[nH]c(=O)c1-c1ccccc1,> 4 mM (inactive)
15,O=C(O)c1cncc(-c2ccccc2)c1,> 4 mM (inactive)
16,COc1cc2c(cc1OC)[C@@]13CCN4CC5=CCOC6CC(=O)N2C1[C@H]6[C@H]5C[C@H]43 (stereo partly drawn),> 4 mM (inactive)
17,S=C(NCc1ccco1)NN1CCOCC1,> 4 mM (inactive)
18,O=C(O)C1=CCCNC1,> 4 mM (inactive)
19,O=C(O)c1ccccc1C(=O)Nc1ccccc1,> 4 mM (inactive)
20,OC/C=C/c1ccc(O)c(O)c1,> 4 mM (inactive)
21,OCc1ccc(-n2cccn2)cc1,> 4 mM (inactive)
22,NC(=O)c1oc2ccccc2c1N,> 4 mM (inactive)
23,NC(=O)c1ccccc1NC(=O)C1CC1,> 4 mM (inactive)
24,Cc1noc(C)c1C(=O)NC1=NCCS1,> 4 mM (inactive)

row,Structure (SMILES),Kd
1,O=C(Nc1nnc(-c2ccccc2Cl)o1)c1ccco1,> 4 mM (inactive)
2,CCNC(=S)NS(=O)(=O)c1ccccc1,> 4 mM (inactive)
3,OCc1ccc(-c2cccs2)s1,> 4 mM (inactive)
4,NCC(N)C(=O)c1ccccc1 (stereo not drawn),> 4 mM (inactive)
5,CN(C)C(=O)CSc1nc2ccccc2c(=O)[nH]1,> 4 mM (inactive)
6,Cc1c(C)n2c(SCC(N)=O)nnc2[nH]c1=O,> 4 mM (inactive)
7,O=C(O)CCCN1CNC(=S)NC1,> 4 mM (inactive)
8,CC1(C)CC2C1CCC1(C)OC1CCC2(C)O (stereo not drawn),> 4 mM (inactive)
9,CN(C)S(=O)(=O)c1ccc(C(=O)NN)cc1,> 4 mM (inactive)
10,COc1cc(OC)c2c(c1)O[C@H](c1ccc(OC)c(OC)c1)[C@@H](O)C2,> 4 mM (inactive)
11,Cc1ccccc1C(=O)Nn1cnnc1,> 4 mM (inactive)
12,CC1(C)Cc2nc3n[nH]c(N)c3cc2CO1,> 4 mM (inactive)
13,Cc1nc(-c2cc(CO)no2)cs1,> 4 mM (inactive)
14,Fc1cccc(Cl)c1CN1CCNCC1,> 4 mM (inactive)
15,Nc1ccc2c(c1)CCCC2=O,> 4 mM (inactive)
16,CC(=O)Nc1ccccc1OCC(N)=O,> 4 mM (inactive)
17,COc1cc(OC)c(-c2nc3cnccc3n2C)cc1OC,> 4 mM (inactive)
18,CC(C)CCCC(C)C1CCC2C3CC(=O)[C@H]4C[C@@H](O)CC[C@]4(C)C3CC[C@]12C (stereo partly drawn),> 4 mM (inactive)
19,COc1cc(OC)c2ccc(=O)oc2c1,> 4 mM (inactive)
20,Cc1nn(C)c(Cl)c1C(O)c1c(C)nn(C)c1Cl,> 4 mM (inactive)
21,OCc1ccc(N2CCOCC2)cc1,> 4 mM (inactive)
22,CN(C)S(=O)(=O)c1ccc(N2CCOCC2)nc1,> 4 mM (inactive)
23,O=C(O)CC(O)c1nc2ccccc2[nH]1 (stereo not drawn),> 4 mM (inactive)
24,Nc1ncnc2c1ncn2C1O[C@H](COP(=O)(O)O)[C@@H](O)[C@H]1O (stereo partly drawn),> 4 mM (inactive)

row,Structure (SMILES),Kd
1,CCNCC(O)c1ccc([N+](=O)[O-])cc1 (stereo not drawn),> 4 mM (inactive)
2,C=Cc1c(C)c2cc3[nH]c(cc4nc(cc5nc(cc1[nH]2)C(C)=C5CCC(=O)O)C(CCC(=O)O)=C4C)c(C)c3C=C,> 4 mM (inactive)
3,COc1ccc(C2(CN)CCOCC2)cc1OC,> 4 mM (inactive)
4,Cn1c(=O)c2[nH]c(Nc3ccccc3)nc2n(C)c1=O,> 4 mM (inactive)
5,CC1(C)CC2C1CC[C@]1(C)CCC3C(C(=O)O)CC(=O)O[C@@]32C1 (stereo partly drawn),> 4 mM (inactive)
6,COC(=O)c1cnccc1C(F)(F)F,> 4 mM (inactive)
7,Cc1cc2ncc(C(=O)O)c(C)n2n1,> 4 mM (inactive)
8,Cc1ccc(CN2C3=NC(=O)CN3c3ccccc32)cc1,> 4 mM (inactive)
9,COc1ccc(O)c(-c2cn[nH]c2-c2cccs2)c1,> 4 mM (inactive)
10,Cc1cc(N)no1,> 4 mM (inactive)
11,COC(=O)c1nc(-c2ccccc2)oc1N(C)C,> 4 mM (inactive)
12,N#Cc1nc(N2CCCCC2)nc(N2CCOCC2)n1,> 4 mM (inactive)
13,COC1=CC23CCCN2CCc2cc4c(cc2C3C1O)OCO4 (stereo not drawn),> 4 mM (inactive)
14,Cc1noc(C)c1C(=O)Nc1sc(C)c(C)c1C#N,> 4 mM (inactive)
15,Cn1c(=O)n(C)c2nc([N+](=O)[O-])c(Cl)cc21,> 4 mM (inactive)
16,CCOc1ccc(-c2n[nH]c(=S)n2C)cc1,> 4 mM (inactive)
17,CN(C)S(=O)(=O)Nc1ccc(Br)cc1F,> 4 mM (inactive)
18,Cc1csc(CCc2nc(C)cs2)n1,> 4 mM (inactive)
19,O=C1CC(=O)N2N=C(c3ccccc3)SC2=N1,> 4 mM (inactive)
20,O=C1NC(=S)N/C1=C\c1ccccc1F,> 4 mM (inactive)
21,Cc1n[nH]c(=S)n1-c1ccc(C(=O)O)cc1,> 4 mM (inactive)
22,[O-][n+]1onc2c1CCc1c-2nn(-c2ccccc2)[n+]1[O-],> 4 mM (inactive)
23,Cn1cnnc1SCC(=O)Nc1ccccc1,> 4 mM (inactive)
24,Cn1c(=O)c2c([nH]c(=O)n2C)n(C)c1=O,> 4 mM (inactive)

row,Structure (SMILES),Kd
1,OCc1sccc1-n1cccc1,> 4 mM (inactive)
2,N#Cc1cnn2c(C(F)(F)F)cc(C(F)(F)F)nc12,> 4 mM (inactive)
3,CC(=O)Nc1ccc(S(=O)(=O)NC2=NCCS2)cc1,> 4 mM (inactive)
4,CNC(Cc1c[nH]c2ccccc12)C(=O)O (stereo not drawn),> 4 mM (inactive)
5,c1ccc(Cc2nnc(-c3ccccc3)o2)cc1,> 4 mM (inactive)
6,CC(=O)O[C@@H]1CC[C@@]2(C)C(CC[C@]3(C)C2CC=C2C4CC(C)(C)CC[C@]4(C(=O)O)CC[C@]23C)C1(C)C (stereo partly drawn),> 4 mM (inactive)
7,CS(=O)(=O)Nc1nnc(Cc2ccccc2)s1,> 4 mM (inactive)
8,CC(=O)c1cccc(NS(=O)(=O)N(C)C)c1,> 4 mM (inactive)
9,COCC(=O)Nc1c(C(N)=O)oc2ccccc12,> 4 mM (inactive)
10,O=C1CSC(c2ccccc2)N1 (stereo not drawn),> 4 mM (inactive)
11,c1ccc(-n2ncc3c(NCc4ccco4)ncnc32)cc1,> 4 mM (inactive)
12,C[C@]12CCC3C(CC[C@]4(O)C[C@@H](O)CC[C@]34C=O)[C@@]1(O)CCC2C1=CC(=O)OC1 (stereo partly drawn),> 4 mM (inactive)
13,CC(=O)c1cc2c(cc1O)OC(C)(C)C=C2,> 4 mM (inactive)
14,O=C(NN1C(=O)C2C3C=CC(C3)C2C1=O)C1CC=CCC1 (stereo not drawn),> 4 mM (inactive)
15,O=C(CSc1ccccc1)N1CCC2(CC1)OCCO2,> 4 mM (inactive)
16,CCOC(=O)c1[nH]cnc1C(=O)OC(C)C,> 4 mM (inactive)
17,O=C(O)c1[nH]nc2c1COc1ccccc1-2,> 4 mM (inactive)
18,O=C(Nn1c(=S)[nH]c2ccccc2c1=O)c1ccncc1,> 4 mM (inactive)
19,CC(=O)c1cnc2nc(C(F)(F)F)nn2c1C,> 4 mM (inactive)
20,COC1(C)CCC2OC2(C)CCC2C1CC2(C)C (stereo not drawn),> 4 mM (inactive)
21,Cc1cc(-c2ccccc2)nc2cc(C(N)=O)nn12,> 4 mM (inactive)
22,O=C1c2ccccc2-c2ncnc3cccc1c23,> 4 mM (inactive)

# From PubChem BioAssay AID1549 (Sanford-Burnham Center for Chemical Genomics, 2009)
